Measured values reported in US20180071238A1, “Compositions and Methods for Traumatized Tissues Using Zinc Chelators” (Ohio University, priority 2015, published 2018).

Experiment: Zinc dissolution and precipitation in solutions of different pH (naked eye and microscope)
Type: physicochemical
Settings: FIGS. 7A-7C
Protocol: Zinc dissolution in acidic solution and zinc precipitation or crystallization in neutral or basic solution is shown in the photographs in FIGS. 7A-7C. The tests were carried out by the application of zinc into solutions.

Structure (SMILES): [Zn+2] [zinc]
- solubility of zinc in solution (acidic conditions): generally soluble
- solubility of zinc in solution (neutral and basic conditions): tends to crystallize or precipitate
